The target in one experiment is T1, Tdp1 (Homo sapiens, UniProt Q9NUW8).
T1 construct: made in house
Put plainly: Real-time detection of Tdp1 activity (FAM/BHQ1 oligonucleotide biosensor). It is filed as biochemical. Particulars: for IC50: Tdp1 inhibition, 6-point concentration response curve; for Tdp1 inhibitory activity (in words): compared with the other derivatives of the series. The procedure: A previously designed, real-time, hexadecameric oligonucleotide biosensor with 5(6)-carboxyfluorescein (FAM) at the 5′ end and fluorophore quencher BHQ1 (Black Hole Quencher-1) at the 3′-end was used to determine the inhibitory properties of the new compounds.
Real-Time Detection of Tdp1 Activity. The Tdp1 activity measurements were carried out as described. […] Tdp1 inhibition was calculated by comparing the rate of increase in fluorescence in the presence of the compound to that of DMSO control wells. IC50 values were determined using a 6-point concentration response curve. The data were imported into the MARS Data Analysis 2.0 program (BMG LABTECH), and the slope during the linear phase (here data from 0 to 7 min) was calculated.

Another experiment relates to Lewis carcinoma. Briefly: Lifespan of mice with ascites variant of Lewis carcinoma. Particulars: monotherapy at selected doses (tpc 0.5 mg/kg or 3ba 120 mg/kg), unreliable, p > 0.05. It is filed as in vivo. The procedure:
We then examined the effect of 3ba in combination with tpc on the lifespan of mice. C57BL/6 mice were intraperitoneally inoculated with the ascites variant of Lewis carcinoma. Group 1: control without treatment; group 2: tpc 0.5 mg/kg intraperitoneally; group 3: tpc and 3ba intraperitoneally 120 mg/kg; and group 4: 3ba 120 mg/kg only.
(§1) Lab animals. Thre-e to four-month-old male and female C57Bl/6 mice from the breeding colony of the Institute of Cytology and Genetics, SB RAS, were used in the study. The animals were kept on sawdust in plastic cages with 5–7 mice per cage, with free access to ground food (“Laboratorkorm”, Moskow, Russia) and tap water. All experiments were performed in accordance with protocols approved by the Animal Care and Use Committee of the Institute of Cytology and Genetics. Also, all experimental procedures were performed in accordance with the Directive 2010/63/EU for animal experiments.
(§2) Tumor models. The experimental tumor used was Lewis Lung Carcinoma (LLC) and Krebs-2. The animals were treated with tpc and the Tdp1 inhibitor 3ba two days after tumor transplantation. The tumor was transplanted into the muscles of the thigh by 0.2 million cells per mouse. Tpc (Sindan Pharma SRL, Romania) was administered intraperitoneally at a single dose of 0.5 mg/kg; Tdp1 inhibitor 3ba was administrated intraperitoneally at a single dose of 20, 40, or 80 mg/kg (for Krebs-2), or 120 mg/kg (for LLC) in 15% dimethyl sulfoxide (DMSO)–10% Tween-80 suspension in water (0.2 mL of suspension per mouse) simultaneously with tpc. Control mice were injected with a DMSO-Tween-80 mixture into the stomach.
(§3) Statistical analysis. The experimenter measuring and calculating the primary animal data (tumor size, lifespan) was blinded. After unblinding, the animal data were statistically processed using oneway ANOVA. Post-hoc testing was completed using Turkey’s Honestly Significant Difference (HSD). p < 0.05 was considered to be statistically significant. The statistical package […] version 12.5 was used for analysis. All results are expressed as mean ± SEM.

For a further experiment, the system named is Krebs-2 carcinoma. Briefly: Influence on antitumor effect of tpc, Krebs-2 ascites tumor model. It is filed as in vivo, mice. Conditions: tpc only, 0.5 mg/kg i.p. (group 2); control 1750 million per mouse. The procedure:
A study of the influence of 3ba on the antitumor effect of tpc (topotecan) was performed using a murine Krebs-2 carcinoma model. An ascitic tumor model combines the advantages of in vitro and in vivo approaches in studying the cytotoxic effect of compounds, since ascitic cells grow in the context of the organism (in vivo), and the intraperitoneal administration of drug ensures its direct contact with tumor cells (in vitro). The experiments were performed using female C57BL/6 mice, which were injected intraperitoneally with 2 × 10^5 ascitic cells on day zero. The mice were divided into six groups of ten animals each.
as §1, §2, §3

SMILES strings stand for the structures.

T1 sequence (Q9NUW8 whole entry): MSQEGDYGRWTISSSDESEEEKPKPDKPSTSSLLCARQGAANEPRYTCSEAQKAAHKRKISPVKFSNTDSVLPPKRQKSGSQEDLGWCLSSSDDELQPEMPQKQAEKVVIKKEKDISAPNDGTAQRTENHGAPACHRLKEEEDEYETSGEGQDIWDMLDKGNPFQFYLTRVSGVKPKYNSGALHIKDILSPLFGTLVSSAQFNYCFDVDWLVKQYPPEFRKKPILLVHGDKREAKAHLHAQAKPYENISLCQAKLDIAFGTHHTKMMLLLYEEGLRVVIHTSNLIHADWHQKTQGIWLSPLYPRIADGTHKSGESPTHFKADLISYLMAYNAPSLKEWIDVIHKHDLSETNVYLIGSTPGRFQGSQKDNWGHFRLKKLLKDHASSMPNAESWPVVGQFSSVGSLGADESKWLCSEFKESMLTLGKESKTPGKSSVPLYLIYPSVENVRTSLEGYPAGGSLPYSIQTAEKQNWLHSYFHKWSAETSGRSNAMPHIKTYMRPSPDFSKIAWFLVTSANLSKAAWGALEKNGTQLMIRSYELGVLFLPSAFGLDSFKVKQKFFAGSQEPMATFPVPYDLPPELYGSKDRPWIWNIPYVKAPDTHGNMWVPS

One may read the IC50 as the concentration that inhibits the measured activity by half. A lower IC50 goes with greater potency. Regarding `CC(C)=CCC/C(C)=C/COc1ccc2c(-c3ccccc3)cc(=O)oc2c1` [3aa, (E)-7-(3,7-Dimethylocta-2,6-dienyloxy)-4-phenyl-2H-chromen-2-one], the IC50 against Tdp1 stood at 0.49 ± 0.14 µM.

In the case of `CC1(C)[C@H]2CC=C(CCOc3ccc4c(-c5ccccc5)cc(=O)oc4c3)[C@@H]1C2` [3ab, 7-(2-((1R,5S)-6,6-Dimethylbicyclo[3 1.1]hept-2-en-2-yl)ethoxy)-4-phenyl-2H-chromen-2-one], it took 0.41 ± 0.12 µM to reach half-maximal inhibition on Tdp1 (IC50).

For `CC1(C)[C@H]2CC=C(COc3ccc4c(-c5ccccc5)cc(=O)oc4c3)[C@@H]1C2` [3ac, 7-(((1R,5S)-6,6-Dimethylbicyclo[3.1.1]hept-2-en-2-yl)methoxy)-4-phenyl-2H-chromen-2-one], at Tdp1, the IC50 came to 0.46 ± 0.16 µM and the “Tdp1 inhibitory activity (in words)” value is given as “slightly less active”.

On Tdp1, `CC1(C)[C@@H]2CC=C(COc3ccc4c(-c5ccccc5)cc(=O)oc4c3)[C@H]1C2` [3ad, 7-(((1S,5R)-6,6-Dimethylbicyclo[3.1.1]hept-2-en-2-yl)methoxy)-4-phenyl-2H-chromen-2-one] yielded an IC50 of 0.48 ± 0.11 µM.

`CC1(C)[C@H]2CC=C(CCOc3ccc4c(-c5ccc(F)cc5)cc(=O)oc4c3)[C@@H]1C2` [3bb, 7-(2-((1R,5S)-6,6-Dimethylbicyclo[3.1.1]hept-2-en-2-yl)ethoxy)-4-(4-fluorophenyl)-2H-chromen-2-one]: on Tdp1, the IC50 stood at 7.5 ± 0.7 µM and the “Tdp1 inhibitory activity (in words)” value is given as “markedly lower activity”.

Turning to `CC1(C)[C@H]2CC=C(COc3ccc4c(-c5ccc(F)cc5)cc(=O)oc4c3)[C@@H]1C2` [3bc, 7-(((1R,5S)-6,6-Dimethylbicyclo[3.1.1]hept-2-en-2-yl)methoxy)-4-(4-fluorophenyl)-2H-chromen-2-one], the IC50 on Tdp1 was determined as 0.99 ± 0.3 µM.

`CC1(C)[C@@H]2CC=C(COc3ccc4c(-c5ccc(F)cc5)cc(=O)oc4c3)[C@H]1C2` [3bd, 7-(((1S,5R)-6,6-Dimethylbicyclo[3.1.1]hept-2-en-2-yl)methoxy)-4-(4-fluorophenyl)-2H-chromen-2-one] displayed an IC50 against Tdp1 of 1.03 ± 0.58 µM.

`CC(C)=CCC/C(C)=C/COc1ccc2c(-c3ccc(Br)cc3)cc(=O)oc2c1` [3ca, (E)-4-(4-Bromophenyl)-7-(3,7-dimethylocta-2,6-dienyloxy)-2H-chromen-2-one] came in with an IC50 at Tdp1 of 0.9 ± 0.37 µM.

`CC1(C)[C@H]2CC=C(CCOc3ccc4c(-c5ccc(Br)cc5)cc(=O)oc4c3)[C@@H]1C2` [3cb, 4-(4-Bromophenyl)-7-(2-((1R,5S)-6,6-dimethylbicyclo[3.1.1]hept-2-en-2-yl)ethoxy)-2H-chromen-2-one] showed an IC50 on Tdp1 of 0.59 ± 0.07 µM.

`CC1(C)[C@H]2CC=C(COc3ccc4c(-c5ccc(Br)cc5)cc(=O)oc4c3)[C@@H]1C2` [3cc, 4-(4-Bromophenyl)-7-(((1R,5S)-6,6-dimethylbicyclo[3.1.1]hept-2-en-2-yl)methoxy)-2H-chromen-2-one] had an IC50 against Tdp1 of 3.23 ± 0.35 µM.

With `CC1(C)[C@@H]2CC=C(COc3ccc4c(-c5ccc(Br)cc5)cc(=O)oc4c3)[C@H]1C2` [3cd, 4-(4-Bromophenyl)-7-(((1S,5R)-6,6-dimethylbicyclo[3.1.1]hept-2-en-2-yl)methoxy)-2H-chromen-2-one], the IC50 against Tdp1 was 0.43 ± 0.05 µM.

`COc1ccc(-c2cc(=O)oc3cc(OCCC4=CC[C@H]5C[C@@H]4C5(C)C)ccc23)cc1` [3db, 7-(2-((1R,5S)-6,6-Dimethylbicyclo[3.1.1]hept-2-en-2-yl)ethoxy)-4-(4-methoxyphenyl)-2H-chromen-2-one] returned a 50% inhibitory concentration (IC50) against Tdp1 of 0.91 ± 0.13 µM.

In the case of `COc1ccc(-c2cc(=O)oc3cc(OCC4=CC[C@H]5C[C@@H]4C5(C)C)ccc23)cc1` [3dc, 7-(((1R,5S)-6,6-Dimethylbicyclo[3.1.1]hept-2-en-2-yl)methoxy)-4-(4-methoxyphenyl)-2H-chromen-2-one], 0.59 ± 0.15 µM corresponded to half-maximal inhibition against Tdp1 (IC50).

As to `COc1ccc(-c2cc(=O)oc3cc(OCC4=CC[C@@H]5C[C@H]4C5(C)C)ccc23)cc1` [3dd, 7-(((1S,5R)-6,6-Dimethylbicyclo[3.1.1]hept-2-en-2-yl)methoxy)-4-(4-methoxyphenyl)-2H-chromen-2-one], at Tdp1, the IC50 is 0.59 ± 0.06 µM.

For the compound `O=c1cc(-c2ccc(Br)cc2)c2ccc(OCc3ccccc3)cc2o1` [10c, 7-(Benzyloxy)-4-(4-bromophenyl)-2H-chromen-2-one], the IC50 at Tdp1 amounted to 2.4 ± 0.8 µM.

Compound `COc1ccc(-c2cc(=O)oc3cc(OCc4ccccc4)ccc23)cc1` [10d, 7-(Benzyloxy)-4-(4-methoxyphenyl)-2H-chromen-2-one] came in with an IC50 at Tdp1 of 3.31 ± 0.98 µM.

Take `CC[C@@]1(O)C(=O)OCc2c1cc1n(c2=O)Cc2cc3c(CN(C)C)c(O)ccc3nc2-1` [tpc, topotecan, reference compound]: in the experiment with Lewis carcinoma, the prolongation of life is listed as 13–19%. Besides, the “number of tumor cells in ascites” value in the experiment with Krebs-2 carcinoma worked out at 950 mln.

The values are drawn from PMC6982354, “Promising New Inhibitors of Tyrosyl-DNA Phosphodiesterase I (Tdp 1) Combining 4-Arylcoumarin and Monoterpenoid Moieties as Components of Complex Antitumor Therapy” (International Journal of Molecular Sciences, 2019).
